Data taken from ChEMBL document CHEMBL1201862, “PubChem BioAssay data set” (2004).
Calls of active or inactive are those of the source.

Legend:
[1] = Trypanosoma cruzi growth suppression in host cells – NIH3T3 host cells, beta-gal luminescence, confirmation (AID 2044); type: functional, cell-based;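 note: intracellular parasites grown in NIH/3T3 mouse fibroblasts as host cells; luminescent beta-galactosidase reporter signal from transgenic T. cruzi replicating inside host cells; inhibitors lower the luminescence signal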
[2] = NIH3T3 cell viability loss – ATP luminescence, mouse fibroblasts, counter-screen, dose response (AID 2010); type: functional, cell-based;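 note: cells exposed to compound for about 90 hours before reading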
[3] = biological target: Cytochrome P450 2C19 (Homo sapiens, UniProt P33261); assay: Cytochrome panel assay with activity outcomes. Panel member name: p450-cyp2c19 Compounds with AC50 equal or less than 10 uM are considered active; type: functional
[4] = test system: H4; assay: Luminescence Cell-Based Dose Response HTS to Identify Activators of 5'UTR Stem-Loop Driven Prion Protein mRNA Translation in H4 Neuroglioblastoma Cells. [Related pubchem assays: 1829 (Project Summary), 1814 (Primary HTS)]; type: functional; settings: Homo sapiens
[5] = Luminescence Cell-Based Dose Response HTS to Identify Activators of Luciferase Translation or Activity in H4 […] Cells. [Related pubchem assays: 1829 (Project Summary), 1814 (Primary HTS)]; type: functional
[6] = test system: Streptococcus sp. 'group A'; assay: Streptococcus pyogenes SK(-)GAS viability under kanamycin – luminescence, BacTiterGlo, confirmation, counter-screen for streptokinase expression inhibitor project, dose response (AID 1900); type: functional, organism-based
[7] = test system: Streptococcus; assay: GAS UMAA2166 growth inhibition – luminescence, BacTiterGlo, counter-screen for streptokinase expression inhibitor project, dose response (AID 1915); type: functional, organism-based;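 note: potency for reduction of bacterial viability or growth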
[8] = biological target: T1, Streptokinase A (Streptococcus pyogenes serotype M1, UniProt P10520); assay: viability-normalized secreted streptokinase activity reduction – plasminogen activation absorbance, OD405, dose response (AID 1914); type: functional, Streptococcus pyogenes M1 GAS;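 note: secreted streptokinase activity via plasminogen activation per viability signal from cell pellet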
T1 sequence (P10520 whole entry): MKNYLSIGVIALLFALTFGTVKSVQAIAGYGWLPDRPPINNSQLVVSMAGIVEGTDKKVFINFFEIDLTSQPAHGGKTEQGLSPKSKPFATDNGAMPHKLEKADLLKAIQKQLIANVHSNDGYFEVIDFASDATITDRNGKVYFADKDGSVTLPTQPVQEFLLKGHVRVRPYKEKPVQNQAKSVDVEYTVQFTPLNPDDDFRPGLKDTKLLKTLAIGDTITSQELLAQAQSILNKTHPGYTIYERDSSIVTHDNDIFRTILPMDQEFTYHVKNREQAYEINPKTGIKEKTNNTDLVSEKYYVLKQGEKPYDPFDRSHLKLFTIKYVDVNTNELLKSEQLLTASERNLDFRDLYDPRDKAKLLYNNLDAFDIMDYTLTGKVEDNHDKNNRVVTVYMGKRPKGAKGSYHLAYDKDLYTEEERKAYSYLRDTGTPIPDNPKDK

[9] = biological target: Cytochrome P450 2C9 (Homo sapiens, UniProt P11712)
[10] = biological target: T2, Corticotropin-releasing factor receptor 2/Corticotropin-releasing factor-binding protein (Homo sapiens, UniProt P24387+Q13324); assay: activators of CRF receptor 2 with binding protein – uHTS hits, confirmation (AID 602473); type: functional; settings: read-out: EC50_Mean
T2 sequence (Q13324 whole entry): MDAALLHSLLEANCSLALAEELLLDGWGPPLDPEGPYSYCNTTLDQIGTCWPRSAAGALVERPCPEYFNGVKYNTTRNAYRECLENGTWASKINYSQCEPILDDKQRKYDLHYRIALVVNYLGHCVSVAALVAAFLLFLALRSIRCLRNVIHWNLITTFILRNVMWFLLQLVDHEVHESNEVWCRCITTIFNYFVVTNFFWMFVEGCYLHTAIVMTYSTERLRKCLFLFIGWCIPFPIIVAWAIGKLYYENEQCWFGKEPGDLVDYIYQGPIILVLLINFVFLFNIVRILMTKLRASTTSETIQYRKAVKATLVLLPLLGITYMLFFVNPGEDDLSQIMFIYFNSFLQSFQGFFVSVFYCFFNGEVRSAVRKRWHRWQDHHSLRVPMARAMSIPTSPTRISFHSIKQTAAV
T2 sequence (P24387 whole entry): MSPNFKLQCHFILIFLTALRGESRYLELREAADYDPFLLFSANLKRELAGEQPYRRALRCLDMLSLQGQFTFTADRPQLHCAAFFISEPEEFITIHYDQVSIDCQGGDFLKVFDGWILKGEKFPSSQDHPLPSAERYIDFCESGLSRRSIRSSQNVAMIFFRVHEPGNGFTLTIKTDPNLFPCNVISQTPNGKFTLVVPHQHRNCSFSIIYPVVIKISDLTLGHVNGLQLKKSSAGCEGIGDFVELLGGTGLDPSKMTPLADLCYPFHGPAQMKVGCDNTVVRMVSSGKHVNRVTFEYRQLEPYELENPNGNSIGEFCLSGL

Chain of Cytochrome P450 2C19 (P33261 whole entry): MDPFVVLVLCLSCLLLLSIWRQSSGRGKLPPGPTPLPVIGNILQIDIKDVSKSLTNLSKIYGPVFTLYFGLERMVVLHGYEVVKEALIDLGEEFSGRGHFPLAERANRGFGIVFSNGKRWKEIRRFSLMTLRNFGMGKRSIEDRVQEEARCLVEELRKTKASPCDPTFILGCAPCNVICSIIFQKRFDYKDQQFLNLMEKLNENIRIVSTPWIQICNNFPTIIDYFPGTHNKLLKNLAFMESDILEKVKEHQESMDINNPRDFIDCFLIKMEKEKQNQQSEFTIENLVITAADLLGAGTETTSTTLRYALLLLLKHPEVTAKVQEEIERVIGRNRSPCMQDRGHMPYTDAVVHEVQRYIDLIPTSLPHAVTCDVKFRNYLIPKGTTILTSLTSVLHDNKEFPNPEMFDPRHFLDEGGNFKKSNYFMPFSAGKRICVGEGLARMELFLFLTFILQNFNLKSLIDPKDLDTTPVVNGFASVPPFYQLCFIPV
Chain of Cytochrome P450 2C9 (P11712 whole entry): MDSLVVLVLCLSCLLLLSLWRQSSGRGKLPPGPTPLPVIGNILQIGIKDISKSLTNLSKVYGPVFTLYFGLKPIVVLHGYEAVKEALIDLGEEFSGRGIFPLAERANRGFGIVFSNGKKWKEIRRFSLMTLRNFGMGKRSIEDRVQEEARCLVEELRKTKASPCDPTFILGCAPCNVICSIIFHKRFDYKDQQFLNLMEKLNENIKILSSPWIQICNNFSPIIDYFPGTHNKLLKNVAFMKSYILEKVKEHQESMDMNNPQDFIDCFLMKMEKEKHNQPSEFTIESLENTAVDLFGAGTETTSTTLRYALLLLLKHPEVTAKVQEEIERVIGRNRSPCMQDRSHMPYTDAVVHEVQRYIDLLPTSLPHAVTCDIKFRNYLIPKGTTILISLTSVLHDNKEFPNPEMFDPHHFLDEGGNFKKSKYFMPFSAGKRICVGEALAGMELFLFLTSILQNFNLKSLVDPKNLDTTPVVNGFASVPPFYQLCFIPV

| Compound | EC50 [6] | EC50 [7] | EC50 [8] | further results |
| --- | --- | --- | --- | --- |
| Cc1ccc(C)c(NC(=S)N2CCC(c3nc4ccccc4s3)CC2)c1 |  |  |  | EC50 [1]: 3.67 µM (active); EC50 [2]: > 30 µM (not active) |
| CCOC(=O)C1CN(S(=O)(=O)c2cccc(C(F)(F)F)c2)c2cc(CC(=O)OC)ccc2O1 (stereo not drawn) |  |  |  | AC50 ([3]; read-out: AC50): 0.282 µM (inconclusive) |
| O=C(NCCc1ccccc1)C1=COCCO1 |  |  |  | EC50 [4]: > 120 µM (not active); EC50 [5]: 0.762 µM (active) |
| O=C(Nc1nnc(C2=COCCO2)o1)c1cccc(F)c1 | 1.83 µM (active) | 19.6 µM (active) | > 150 µM (not active) |  |
| COc1ccc(C(C(=O)NC(C)(C)C)N(C(=O)CNC(=O)c2cccs2)c2ccc(C)cc2)cc1OC (stereo not drawn) |  |  |  | AC50 ([3]; read-out: AC50): 17.8 µM (inconclusive) |
| COc1ccc(CCN2CC(C(=O)NCCc3ccccn3)CCC2=O)cc1 (stereo not drawn) | > 150 µM (not active) | > 150 µM (not active) | > 150 µM (not active) |  |
| COc1cc(CN2CCCC(C(=O)c3ccccc3SC)C2)cc(OC)c1 (stereo not drawn) |  |  |  | EC50 [1]: 0.557 µM (active); EC50 [2]: > 60 µM (not active) |
| CCC[C@@H]1C[C@@]1(CCC)[C@@H](NP(=O)(c1ccccc1)c1ccccc1)c1ccc(C(=O)OC)cc1 | 5.5 µM (active) | 6.87 µM (active) | > 150 µM (not active) |  |
| Cc1ccc(Cn2c(O)c(N=NC(S)=Nc3ccccc3F)c3ccccc32)cc1 |  |  |  | EC50 [1]: 0.886 µM (active); EC50 [2]: 17.4 µM (active) |
| Nc1nc(Nc2ccc(Cl)cc2)nc(NCc2ccco2)c1[N+](=O)[O-] | 7.12 µM (active) | 26.4 µM (inconclusive) | > 150 µM (not active) |  |
| COC(=O)[C@@]1(Cc2ccc(OC)cc2)[C@H]2c3cc(C(=O)N4CCCC4)n(Cc4cc(C)n(C)n4)c3C[C@H]2CN1C(=O)c1ccccc1 |  |  |  | AC50 [9]: 12.6 µM (inconclusive) |
| Cc1ccc(-n2ncc(Cl)c2C(=O)NC2CC2)cc1 |  |  |  | EC50 [5]: 0.26 µM (active) |
| O=C(c1cc(-c2ccccc2)nc2ccccc12)N1CCN(c2ccccc2O)CC1 | 23.8 µM (active) | 61.7 µM (active) | 61.5 µM (active) |  |
| CCCc1nnc(NC(=O)Cn2cnc3ccccc3c2=O)s1 |  |  |  | AC50 ([3]; read-out: AC50): 25.1 µM (inconclusive) |
| Cc1cccc(OCCCCc2c(C)n[nH]c2C)c1C | 6.66 µM (active) | 17 µM (active) |  |  |
| Cc1ccc(NC(=O)CCC(=O)NNS(=O)(=O)c2ccccc2)c(C)c1 |  |  |  | AC50 ([3]; read-out: AC50): 17.8 µM (inconclusive) |
| CCn1ccnc1CN1CCc2c([nH]c3ccccc23)C1C1CCCCC1 (stereo not drawn) | 5.53 µM (active) | 29.3 µM (active) | 42.1 µM (active) |  |
| CN1/C(=C\C=C(/C#N)C(=O)Nc2ccc(Cl)cc2)C(C)(C)c2ccccc21 |  |  |  | EC50 [10]: 6.43 µM (active) |
| O=C(NCc1ccccc1)C(=O)Nc1nc(-c2ccccc2)cs1 | 5.38 µM (active) | 14.1 µM (active) | > 150 µM (not active) |  |
| Cc1ccc(C(=O)NC(=S)NNC(=O)COc2ccccc2C)cc1 | 0.138 µM (active) | 0.555 µM (active) |  | EC50 [10]: 10.6 µM (active) |
| N#Cc1c(N2CCOCC2)nc(N2CCCCC2)c2c1CCN(C1CCCCC1)C2 |  |  |  | EC50 [1]: 0.251 µM (active); EC50 [2]: > 30 µM (not active) |
| COc1ccc(N2C(=O)/C(=C\NNS(=O)(=O)c3cc(C)ccc3C)c3ccccc3C2=O)cc1OC |  |  |  | EC50 [10]: 15.5 µM (active) |
| CCc1c(O)n(-c2ccccc2)c(SCC(=O)NC(C)(C)C)nc1=O |  |  |  | AC50 [9]: 20 µM (inconclusive); AC50 ([3]; read-out: AC50): 35.5 µM (inconclusive) |
| CCN(CC)CCN(C(=O)CCS(=O)(=O)c1ccccc1)c1nc2cc3c(cc2s1)OCO3 |  |  |  | EC50 [1]: 0.794 µM (active); EC50 [2]: > 60 µM (not active) |
| CCN(CC)c1ccc(NC(=O)c2c(C)noc2C)cc1 | > 150 µM (not active) | > 150 µM (not active) | > 150 µM (not active) |  |

| Compound | EC50 [6] | EC50 [7] | EC50 [8] | further results |
| --- | --- | --- | --- | --- |
| Nc1ccc(-c2nc3nc(N)nc(N)c3nc2-c2ccc(N)cc2)cc1 | 2.94 µM (active) | > 150 µM (not active) | > 150 µM (not active) |  |
| Cc1oc(-c2ccc(F)cc2)nc1CN(Cc1ccccn1)CC1CCCO1 (stereo not drawn) | 30.4 µM (active) | > 150 µM (not active) | > 150 µM (not active) |  |
| CN(C)CCCN(C(=O)CCc1ccccc1)c1nc2c(F)cccc2s1 |  |  |  | EC50 [1]: 0.819 µM (active); EC50 [2]: > 30 µM (not active) |
| CCOc1ccc(NC(=O)CC2C(=O)N(C)C(=S)N2CCCc2ccccc2)cc1 (stereo not drawn) |  |  |  | EC50 [1]: 2.4 µM (active); EC50 [2]: > 60 µM (not active) |
| COc1ccccc1CN1CC(C(=O)NCc2ncccc2C)CCC1=O (stereo not drawn) | > 150 µM (not active) | > 150 µM (not active) | > 150 µM (not active) |  |
| Cc1cccc(OCC(=O)Nc2ccc(C(=O)Nc3ccccc3C(=O)O)cc2)c1C | 6.06 µM (active) | > 150 µM (not active) | > 150 µM (not active) |  |
| CCN(CC)c1ccc(C2Nc3cccc4cccc(c34)N2)cc1 |  |  |  | EC50 [4]: 27.2 µM (active); EC50 [5]: 16.8 µM (active) |
| Cc1c(Br)c([N+](=O)[O-])nn1CC(=O)NCc1ccccn1 |  |  |  | AC50 [3]: inconclusive |
| CO[C@@H]1COC(=O)[C@H]2CCCN2C(=O)C/C=C\[C@@H](C)[C@H](OC)COC(=O)[C@H]2CCCN2C(=O)C/C=C\[C@H]1C |  |  |  | AC50 [3]: inconclusive |
| CCOC(=O)c1cn2nc(Oc3ccccc3)ccc2n1 |  |  |  | EC50 [4]: > 120 µM (not active); EC50 [5]: 7.96 µM (active) |
| Cn1nc(-c2ccccc2)c(C(=O)Nc2ccc(Cl)cc2)c1Cl |  |  |  | AC50 [9]: 0.141 µM (inconclusive); AC50 ([3]; read-out: AC50): 2 µM (inconclusive) |
| O=C(O)CCCCCCCCc1cn(Cc2ccc(C(=O)c3ccccc3)cc2)nn1 |  |  |  | EC50 [1]: > 60 µM (not active); EC50 [2]: 6.22 µM (active) |
| Cc1ccccc1-c1cc(-c2ccccc2O)[nH]n1 | 9.25 µM (active) | > 150 µM (not active) |  |  |
| Cc1ccccc1-c1cc(-c2ccccc2O)n[nH]1 |  |  | 66.2 µM (inconclusive) |  |
| CCCC(=O)Nc1sc2c(c1C#N)CCCCC2 |  |  |  | EC50 [4]: > 120 µM (not active); EC50 [5]: 0.102 µM (active) |
| Cc1[nH]c(-c2ccc(F)cc2)cc1C(=O)N1CCN(c2cccc(Cl)c2)CC1 | 3.8 µM (active) | 11.8 µM (active) | > 150 µM (not active) |  |
| CN(C)c1ccc(/C=C/c2c([N+](=O)[O-])c(=O)n(C)c(=O)n2C)cc1 | 5.75 µM (active) | 18.3 µM (active) | > 150 µM (not active) |  |
| Cc1ccc(NC(=O)CN2C(=O)N/C(=C/c3ccc(C)o3)C2=O)cc1 |  |  |  | AC50 [9]: 14.1 µM (inconclusive) |
| Cc1cc(C)nc(SCc2nnc(SCC(N)=O)n2Cc2ccco2)n1 |  |  |  | AC50 [9]: 3.55 µM (inconclusive) |
| CC(C)Cn1c(=O)c(C(=O)N/N=C/c2cccc(F)c2)c(O)c2ccccc21 | 1.28 µM (active) | 3.69 µM (active) |  |  |
| O=C(N/N=C/c1ccc(OCc2ccccc2)cc1)c1ccncc1 |  |  |  | EC50 [4]: 19.3 µM (active); EC50 [5]: 17.7 µM (active) |
| CSc1ccc(/C=N/n2c(C)cc(C)cc2=O)cc1 |  |  |  | EC50 [4]: 7.91 µM (active); EC50 [5]: 18.2 µM (active) |
| C/N=C(N)/N=C(\N)Nc1cc2ccccc2c2ccccc12 |  |  |  | AC50 ([3]; read-out: AC50): 3.98 µM (inconclusive) |
| C[C@H](N)C(=O)OC(C)(C)Cc1ccc(Cl)cc1 [(S)-ALAPROCLATE] |  |  |  | AC50 [9]: 39.8 µM (inconclusive) |
